Experimental data as given in patent US4677100A, “Cephalosporin derivatives” (Banyu Pharmaceutical Co., Ltd., priority 1984, dated 1987).
Converted amounts (≈) assume the structure as drawn.

How the values were obtained:
A. calcoaceticus No. 14 = assay: MIC, agar plate dilution method; assay type: cell-based; conditions: Acinetobacter calcoaceticus; for MIC: A. calcoaceticus No. 14, 10^6 CFU/ml, Sensitivity Disk Agar, read-out: Minimum Inhibitory Concentration
Method: (§1) The minimum inhibitory concentrations (MIC: μg/ml) of the compounds of the present invention against various microorganisms were measured by an agar plate dilution method (inoculum size: 10^6 CFU/ml) by using Sensitivity Disk Agar (Nissui) in comparison with Cefotaxime and Ceftazidime as comparative compounds.

C. freundii No. 7 = assay: MIC, agar plate dilution method; assay type: cell-based; conditions: Citrobacter freundii; C. freundii No. 7; 10^6 CFU/ml; Sensitivity Disk Agar; read-out: Minimum Inhibitory Concentration
Method: as §1

E. cloaceae Nek 39 = assay: MIC, agar plate dilution method; assay type: cell-based; conditions: E. cloaceae Nek 39; 10^6 CFU/ml; Sensitivity Disk Agar; read-out: Minimum Inhibitory Concentration
Method: as §1

E. coli C/Rms149 = assay: MIC, agar plate dilution method; assay type: cell-based; conditions: Escherichia coli, read-out: Minimum Inhibitory Concentration
Method: as §1

E. coli CSH2 = assay: MIC, agar plate dilution method; assay type: cell-based; conditions: Escherichia coli, 10^6 CFU/ml, Sensitivity Disk Agar, read-out: Minimum Inhibitory Concentration
Method: as §1

E. coli CSH = assay: MIC, agar plate dilution method; assay type: cell-based; conditions: Escherichia coli, read-out: Minimum Inhibitory Concentration
Method: as §1

E. coli ML1410/Rte16 = assay: MIC, agar plate dilution method; assay type: cell-based; conditions: Escherichia coli, ML1410/RTE16, read-out: Minimum Inhibitory Concentration
Method: as §1

E. coli NIHJJC-2 = assay: MIC, agar plate dilution method; assay type: cell-based; conditions: Escherichia coli, NIHJJC2; E. coli NIHJJC-2; 10^6 CFU/ml; Sensitivity Disk Agar; read-out: Minimum Inhibitory Concentration
Method: as §1

E. coli W3630/Rms212 = assay: MIC, agar plate dilution method; assay type: cell-based; conditions: Escherichia coli, W3630/RMS212, read-out: Minimum Inhibitory Concentration
Method: as §1

E. coli W3630/Rms213 = assay: MIC, agar plate dilution method; assay type: cell-based; conditions: Escherichia coli, W3630/RMS213, read-out: Minimum Inhibitory Concentration
Method: as §1

K. pneumoniae No. 42 = assay: MIC, agar plate dilution method; assay type: cell-based; conditions: Klebsiella pneumoniae; K. pneumoniae No. 42; 10^6 CFU/ml; Sensitivity Disk Agar; read-out: Minimum Inhibitory Concentration
Method: as §1

P. mirabilis JY10 = assay: MIC, agar plate dilution method; assay type: cell-based; conditions: Proteus mirabilis; P. mirabilis JY10; 10^6 CFU/ml; Sensitivity Disk Agar; read-out: Minimum Inhibitory Concentration
Method: as §1

P. vulgaris No. 33 = assay: MIC, agar plate dilution method; assay type: cell-based; conditions: Proteus vulgaris; P. vulgaris No. 33; 10^6 CFU/ml; Sensitivity Disk Agar; read-out: Minimum Inhibitory Concentration
Method: as §1

P. vulgaris OB1043 = assay: MIC, agar plate dilution method; assay type: cell-based; conditions: Proteus vulgaris; P. vulgaris OB1043; 10^6 CFU/ml; Sensitivity Disk Agar; read-out: Minimum Inhibitory Concentration
Method: as §1

S. aureus JS-1 = assay: MIC, agar plate dilution method; assay type: cell-based; conditions: Staphylococcus aureus, JS1; S. aureus JS-1; 10^6 CFU/ml; Sensitivity Disk Agar; read-out: Minimum Inhibitory Concentration
Method: as §1

S. aureus NIHJJC-1 = assay: MIC, agar plate dilution method; assay type: cell-based; conditions: Staphylococcus aureus, NIHJJC1; S. aureus NIHJJC-1; 10^6 CFU/ml; Sensitivity Disk Agar; read-out: Minimum Inhibitory Concentration
Method: as §1

S. marcescens No. 16-2 = assay: MIC, agar plate dilution method; assay type: cell-based; conditions: Serratia marcescens, NO.162; S. marcescens No. 16-2; 10^6 CFU/ml; Sensitivity Disk Agar; read-out: Minimum Inhibitory Concentration
Method: as §1

P. aeruginosa AK109 = assay: MIC, agar plate dilution method; assay type: cell-based, Pseudomonas aeruginosa; conditions: for antibacterial activity relative to the compound of Reference Example: Pseudomonas aeruginosa AK109; for MIC: Pseudomonas aeruginosa, P. aeruginosa AK109, 10^6 CFU/ml, Sensitivity Disk Agar, read-out: Minimum Inhibitory Concentration
Method: as §1

P. aeruginosa AKR17 = assay: MIC, agar plate dilution method; assay type: cell-based, Pseudomonas aeruginosa; conditions: for antibacterial activity relative to the compound of Reference Example: Pseudomonas aeruginosa AKR-17, resistant to all cephalosporins including Ceftazidime; for MIC: Pseudomonas aeruginosa, P. aeruginosa AKR17, 10^6 CFU/ml, Sensitivity Disk Agar, read-out: Minimum Inhibitory Concentration
Method: as §1

P. cepacia 23 = assay: MIC, agar plate dilution method; assay type: cell-based, Pseudomonas cepacia; conditions: for MIC: Burkholderia cepacia, P. cepacia 23, 10^6 CFU/ml, Sensitivity Disk Agar, read-out: Minimum Inhibitory Concentration; for antibacterial activity relative to the compound of Reference Example: Pseudomonas cepacia 23
Method: as §1

P. maltophilia IID 1275 = assay: MIC, agar plate dilution method; assay type: cell-based, Pseudomonas maltophilia; conditions: for antibacterial activity relative to the compound of Reference Example: Pseudomonas maltophilia resistant to all cephalosporins; for MIC: Stenotrophomonas maltophilia, IID1275, P. maltophilia IID 1275, 10^6 CFU/ml, Sensitivity Disk Agar, read-out: Minimum Inhibitory Concentration
Method: as §1

[1] = system: Gram-positive bacteria and Gram-negative bacteria; assay: antibacterial activity, general statement; assay type: cell-based; conditions: sensitive and resistant bacteria
Method: as §1

In the case of `CC(C)(ON=C(C(=O)NC1C(=O)N2C(C(=O)[O-])=C(C[N+]3(C)Cc4cc(O)c(O)cc4C3)CSC12)c1csc(N)n1)C(=O)O` (stereo not drawn) [Ex. 7-E, 7-[(Z)-2-(2-aminothiazol-4-yl)-2-(1-carboxy-1-methylethoxyimino)acetamido]-3-(5,6-dihydroxy-methyl-2-methyl-2-isoindolinium)methyl-3-cephem-4-carboxylate], the “antibacterial activity relative to the compound of Reference Example” value (A. calcoaceticus No. 14) is reported as “at least 32 times”, the MIC (A. calcoaceticus No. 14) is reported as 0.1 µg/mL (≈ 0.158 µM) and the MIC (C. freundii No. 7) is reported as 0.78 µg/mL (≈ 1.23 µM). For the same molecule, the MIC (E. cloaceae Nek 39) was ≤ 0.05 µg/mL, the MIC (E. coli C/Rms149) was ≤ 0.05 µg/mL and the MIC (E. coli CSH2) was ≤ 0.05 µg/mL. For the same molecule, the MIC (E. coli CSH) was 0.1 µg/mL (≈ 0.158 µM), the MIC (E. coli ML1410/Rte16) was ≤ 0.05 µg/mL and the MIC (E. coli NIHJJC-2) was ≤ 0.05 µg/mL. The MIC (E. coli W3630/Rms212) was ≤ 0.05 µg/mL, the MIC (E. coli W3630/Rms213) was ≤ 0.05 µg/mL and the MIC (K. pneumoniae No. 42) was ≤ 0.05 µg/mL. The MIC (P. mirabilis JY10) was 0.1 µg/mL (≈ 0.158 µM), the MIC (P. vulgaris No. 33) was 0.2 µg/mL (≈ 0.316 µM) and the MIC (P. vulgaris OB1043) was 0.1 µg/mL (≈ 0.158 µM). The MIC (S. aureus JS-1) was > 25 µg/mL, the MIC (S. aureus NIHJJC-1) was 25 µg/mL (≈ 39.5 µM) and the MIC (S. marcescens No. 16-2) was 0.39 µg/mL (≈ 0.616 µM). For the same molecule, the “antibacterial activity relative to the compound of Reference Example” value (P. aeruginosa AK109) was “at least 16 times”, the MIC (P. aeruginosa AK109) was ≤ 0.05 µg/mL and the “antibacterial activity relative to the compound of Reference Example” value (P. aeruginosa AKR17) was “at least 32 times”. For the same molecule, the MIC (P. aeruginosa AKR17) was ≤ 0.05 µg/mL, the MIC (P. cepacia 23) was ≤ 0.05 µg/mL and the “antibacterial activity relative to the compound of Reference Example” value (P. cepacia 23) was “at least 32 times”. The “antibacterial activity relative to the compound of Reference Example” value (P. maltophilia IID 1275) was “at least twice as strong”, the MIC (P. maltophilia IID 1275) was 3.12 µg/mL (≈ 4.93 µM) and the “antibacterial activity (in words)” value [1] was “particularly strong antibacterial activities”.

In the case of `CC(C)ON=C(C(=O)NC1C(=O)N2C(C(=O)[O-])=C(C[N+]3(C)Cc4cc(O)c(O)cc4C3)CSC12)c1csc(N)n1` (stereo not drawn) [Ex. 9-C, 7-[(Z)-2-(2-aminothiazol-4-yl)-2-isopropoxyiminoacetamido]-3-(5,6-dihydroxy-2-methyl-2-isoindolinium) methyl-3-cephem-4-carboxylate], the “antibacterial activity relative to the compound of Reference Example” value (A. calcoaceticus No. 14) is reported as “at least 32 times”, the MIC (A. calcoaceticus No. 14) is reported as 0.2 µg/mL (≈ 0.34 µM) and the MIC (C. freundii No. 7) is reported as 3.12 µg/mL (≈ 5.3 µM). The MIC (E. cloaceae Nek 39) was ≤ 0.05 µg/mL, the MIC (E. coli C/Rms149) was ≤ 0.05 µg/mL and the MIC (E. coli CSH2) was ≤ 0.05 µg/mL. The MIC (E. coli CSH) was 0.1 µg/mL (≈ 0.17 µM), the MIC (E. coli ML1410/Rte16) was ≤ 0.05 µg/mL and the MIC (E. coli NIHJJC-2) was ≤ 0.05 µg/mL. For the same molecule, the MIC (E. coli W3630/Rms212) was ≤ 0.05 µg/mL, the MIC (E. coli W3630/Rms213) was ≤ 0.05 µg/mL and the MIC (K. pneumoniae No. 42) was 0.1 µg/mL (≈ 0.17 µM). The MIC (P. mirabilis JY10) was 0.1 µg/mL (≈ 0.17 µM), the MIC (P. vulgaris No. 33) was 0.1 µg/mL (≈ 0.17 µM) and the MIC (P. vulgaris OB1043) was 0.2 µg/mL (≈ 0.34 µM). For the same molecule, the MIC (S. aureus JS-1) was 12.5 µg/mL (≈ 21.2 µM), the MIC (S. aureus NIHJJC-1) was 6.25 µg/mL (≈ 10.6 µM) and the MIC (S. marcescens No. 16-2) was 0.78 µg/mL (≈ 1.33 µM). The “antibacterial activity relative to the compound of Reference Example” value (P. aeruginosa AK109) was “at least 16 times”, the MIC (P. aeruginosa AK109) was ≤ 0.05 µg/mL and the “antibacterial activity relative to the compound of Reference Example” value (P. aeruginosa AKR17) was “at least 32 times”. For the same molecule, the MIC (P. aeruginosa AKR17) was 0.39 µg/mL (≈ 0.663 µM), the MIC (P. cepacia 23) was ≤ 0.05 µg/mL and the “antibacterial activity relative to the compound of Reference Example” value (P. cepacia 23) was “at least 32 times”. For the same molecule, the “antibacterial activity relative to the compound of Reference Example” value (P. maltophilia IID 1275) was “at least twice as strong”, the MIC (P. maltophilia IID 1275) was 3.12 µg/mL (≈ 5.3 µM) and the “antibacterial activity (in words)” value [1] was “particularly strong antibacterial activities”.

Work on `CO/N=C(\C(=O)NC1C(=O)N2C(C(=O)[O-])=C(C[N+]3(C)Cc4ccc(O)cc4C3)CSC12)c1csc(N)n1` (stereo not drawn) [Ex. 2-D, 7-[(Z)-2-(2-aminothiazol-4-yl)-2-methoxyiminoacetamido]-3-(5-hydroxy-2-methyl-2-isoindolinium)methyl-3-cephem-4-carboxylate] yielded an MIC (A. calcoaceticus No. 14) of 25 µg/mL (≈ 45.9 µM), an MIC (C. freundii No. 7) of 1.56 µg/mL (≈ 2.86 µM) and an MIC (E. cloaceae Nek 39) of 0.78 µg/mL (≈ 1.43 µM). For the same molecule, the MIC (E. coli C/Rms149) was 0.1 µg/mL (≈ 0.184 µM), the MIC (E. coli CSH2) was ≤ 0.05 µg/mL and the MIC (E. coli CSH) was 0.39 µg/mL (≈ 0.716 µM). For the same molecule, the MIC (E. coli ML1410/Rte16) was 0.1 µg/mL (≈ 0.184 µM), the MIC (E. coli NIHJJC-2) was ≤ 0.05 µg/mL and the MIC (E. coli W3630/Rms212) was 0.2 µg/mL (≈ 0.367 µM). It also gave an MIC (E. coli W3630/Rms213) of 0.78 µg/mL (≈ 1.43 µM), an MIC (K. pneumoniae No. 42) of 0.2 µg/mL (≈ 0.367 µM) and an MIC (P. mirabilis JY10) of 0.39 µg/mL (≈ 0.716 µM). The MIC (P. vulgaris No. 33) was 0.1 µg/mL (≈ 0.184 µM), the MIC (P. vulgaris OB1043) was 0.39 µg/mL (≈ 0.716 µM) and the MIC (S. aureus JS-1) was 6.25 µg/mL (≈ 11.5 µM). For the same molecule, the MIC (S. aureus NIHJJC-1) was 0.39 µg/mL (≈ 0.716 µM), the MIC (S. marcescens No. 16-2) was 6.25 µg/mL (≈ 11.5 µM) and the MIC (P. aeruginosa AK109) was 3.12 µg/mL (≈ 5.73 µM). For the same molecule, the MIC (P. aeruginosa AKR17) was > 25 µg/mL, the MIC (P. cepacia 23) was 6.25 µg/mL (≈ 11.5 µM) and the MIC (P. maltophilia IID 1275) was > 25 µg/mL.
